Laboratory results published in ChEMBL document CHEMBL1201862, “PubChem BioAssay data set” (2004).
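Exposure lasted 48 hours, with cells grown in 96-well plates and compounds tested at five concentrations. At the GI50, growth is halved.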 The source made the active and inactive calls. Rule as the data show it: active = GI50 up to about 1.1 µM and inactive = higher.

Key:
Test in all cases: inhibition of tumour cell growth, NCI panel, 48 h
[1] = system: KM12
[2] = system: T47D
[3] = system: UACC-62
[4] = system: OVCAR-3
[5] = system: UACC-257
[6] = system: NCI-H23
[7] = system: SK-MEL-28
[8] = system: NCI-H460
[9] = system: MDA-N
[10] = system: SN12C
[11] = system: MDA-MB-435
[12] = system: SK-MEL-2
[13] = system: COLO 205
[14] = system: CCRF-CEM
[15] = system: LXFL 529
[16] = system: A549
[17] = system: HCC 2998
[18] = system: SK-OV-3
[19] = system: TK-10
[20] = system: ACHN

SMILES | GI50 [1] | GI50 [2] | GI50 [3] | GI50 [4] | GI50 [5] | GI50 [6] | GI50 [7] | GI50 [8] | GI50 [9] | GI50 [10] | GI50 [11] | GI50 [12] | GI50 [13] | GI50 [14] | GI50 [15] | GI50 [16] | GI50 [17] | GI50 [18] | GI50 [19] | GI50 [20]
CN(C)/N=N/c1[nH]cnc1C(N)=O [DACARBAZINE] | 92.7 µM (inactive) | > 92.3 µM (inactive) | 35.3 µM (inactive) | 55.3 µM (inactive) | 49.8 µM (inactive) | 93.8 µM (inactive) | 86.5 µM (inactive) | 49.5 µM (inactive) | > 86.1 µM (inactive) | 78.7 µM (inactive) | 84.5 µM (inactive) | 9.82 µM (inactive) | 78.9 µM (inactive) | 11.6 µM (inactive) | 98.2 µM (inactive) | 96.2 µM (inactive) | 45.8 µM (inactive) | 20.6 µM (inactive) | 41.6 µM (inactive) | 
Cc1ccc(C(=O)N(C2CCCCC2)C2CCCCC2)cc1/N=N/N(C)C | 6.71 µM (inactive) | 18 µM (inactive) | 7.78 µM (inactive) | 6.34 µM (inactive) | 12.9 µM (inactive) | 11.3 µM (inactive) | 7.14 µM (inactive) | 15.1 µM (inactive) | 15 µM (inactive) | 15.4 µM (inactive) | 16.2 µM (inactive) | 2.76 µM (inactive) | 17.7 µM (inactive) | 14.9 µM (inactive) | 14.6 µM (inactive) | 13.7 µM (inactive) | 15.7 µM (inactive) | 17.8 µM (inactive) | 9.82 µM (inactive) | 8.83 µM (inactive)
O=C(N[C@H](CO)[C@H](O)c1ccc([N+](=O)[O-])cc1)C(Cl)Cl [CHLORAMPHENICOL] | > 100 µM (inactive) |  | > 100 µM (inactive) | > 100 µM (inactive) | > 100 µM (inactive) | > 100 µM (inactive) | > 100 µM (inactive) | > 100 µM (inactive) | > 100 µM (inactive) | > 100 µM (inactive) | > 100 µM (inactive) | > 100 µM (inactive) | > 100 µM (inactive) | > 100 µM (inactive) | > 100 µM (inactive) | > 100 µM (inactive) | > 100 µM (inactive) | > 100 µM (inactive) | > 100 µM (inactive) | > 100 µM (inactive)
Cc1nc2c(nc1C)C(=O)c1ccccc1C2=O | 5.69 µM (inactive) | 2.99 µM (inactive) | 0.859 µM (active) | 2.68 µM (inactive) | 1.32 µM (inactive) | 0.5 µM (active) | 1.84 µM (inactive) | 0.923 µM (active) | 0.245 µM (active) | 2.48 µM (inactive) | 0.204 µM (active) | 1.24 µM (inactive) | 2.78 µM (inactive) | 8.55 µM (inactive) | 24.4 µM (inactive) | 1.25 µM (inactive) | 6.58 µM (inactive) | 34.5 µM (inactive) | 20.6 µM (inactive) | 10.4 µM (inactive)
CN(C)CCC(=O)N1C/C(=C\c2ccc(Cl)c(Cl)c2)C(=O)/C(=C/c2ccc(Cl)c(Cl)c2)C1 | 0.279 µM (active) | 0.471 µM (active) | 0.608 µM (active) | 0.448 µM (active) | 1.1 µM (active) | 0.504 µM (active) | 0.618 µM (active) | 0.479 µM (active) | 0.213 µM (active) | 0.207 µM (active) | 0.347 µM (active) | 1.63 µM (inactive) | 0.223 µM (active) | 0.0269 µM (active) | 0.211 µM (active) | 0.531 µM (active) | 0.321 µM (active) | 1.86 µM (inactive) | 0.625 µM (active) | 0.329 µM (active)
